Results on four compounds are retold here after patent US7581540B2, “Aerosol drug delivery device incorporating percussively activated heat packages” (Alexza Pharmaceuticals, Inc., priority 2004, dated 2009).

Like-named read-outs stand apart in the source and are kept apart here.

The conditions of data set [1]: for average nicotine purity of the aerosol: maximum temperature 300° C., air flow 20 L/min. As for the experimental part:
The purity of nicotine in an aerosol produced by vaporizing thin films of (nicotine)2-ZnBr2 was also determined. The percent purity of nicotine in the aerosol was determined by comparing the area under the curve representing nicotine with the area under the curve for all other components separated by HPLC.
The coatings of (nicotine)2-ZnBr2 complex were vaporized by applying a current to the metal foil sufficient to heat the coatings to temperatures of 300° C., 350° C., and 400° C. The aerosol formed by vaporizing the coating in an air flow of 20 L/min was analyzed by collecting the aerosol on oxalic acid coated filters. The collected aerosol was extracted from the filters with 5 mL of an aqueous solution containing 0.1% TFA. A Varian HPLC system having a single XTerra RP18, 4.6×150 mm column, with an eluant solution comprising a 75% aqueous phase of perchloric acid solution with one ampoule of 1-octanesulfonic acid sodium salt concentrate at pH 2, and a 25% organic phase of acetonitrile was used. The HPLC was performed under isocratic run conditions for 20 minutes.

The conditions of data set [2]: 350° C., air flow 28.3 L/min. The method, then:
To coat metal foils, the (nicotine)2-ZnBr2 complex was dissolved in chloroform. Two separate coating thickness of the (nicotine)2-ZnBr2 complex on stainless steel were prepared. A 169.4 mg/mL solution of (nicotine)2-ZnBr2 complex in chloroform and a 338.8 mg/mL solution of (nicotine)2-ZnBr2 complex in chloroform were made. Exposure to light was minimized at all times during and after formation of these solutions. The (nicotine)2-ZnBr2 complex for each solution was hand coated onto 0.005 inch thick stainless foils using a 10 uL Hamilton syringe. 5.9 uL of the 169.4 mg/mL (nicotine)2-ZnBr2 complex solution was coated onto both sides of an area of 1.27 cm×2.3 cm of stainless steel. This corresponds to a 2 μm film thickness coating which contained about 1 mg of nicotine. Similarly, 8.8 μL of the 338.8 mg/mL (nicotine)2-ZnBr2 complex solution was coated onto both sides of an area of 1.27 cm×2.3 cm of stainless steel. This corresponds to a […] film thickness coating which contained about […] of nicotine The coatings were dried under vacuum for about 1 hour at 25° C. The coatings of (nicotine)2-ZnBr2 complex were stored in a vacuum for at least 30 minutes and protected from light prior to use.
The coatings of (nicotine)2-ZnBr2 complex were vaporized by applying a current of 13.0V to the metal foil sufficient to heat the coatings to temperature of 350° C. The aerosol formed by vaporizing the coating in an air flow of 28.3 L/min was analyzed by collected the aerosol on oxalic acid coated filters using an 8 stage Anderson impactor. […] After vaporization the filters were extracted with 5 mL of 0.1% trifluoroacetic acid/DI H2O and analyzed by HPLC.

The conditions of data set [3]: airflow about 20 L/min.
Data set [4] is described as follows: drug aerosol purity and recovered yield after vaporization from a percussively ignited heat package, HPLC. It counts as physicochemical.
The conditions of data set [5]: cited from earlier work.
For data set [6] the following is noted: 25° C.; cited from earlier work.
The mark [7] stands for this setting: smokeless nicotine products (chewing tobacco, oral snuff, tobacco sachets), buccal absorption.

Take `CN1CCCC1c1cccnc1.CN1CCCC1c1cccnc1.[Br][Zn][Br]` (stereo not shown) [(nicotine)2-ZnBr2]: the “average nicotine purity of the aerosol” value in data set [1] (2 μm thick thin film) is recorded as “about 99.5%”; in data set [1] (6 μm thick thin film), “about 99.99%”. Also, the “purity of nicotine aerosol from 6 μm film compared with 2 μm film” value in data set [1] (for a given vaporization temperature) was “greater”. The “change of nicotine purity of the aerosol” value in data set [1] (thin film heated to a maximum temperature of greater than 300° C.) is on record as “decreased”. For the same compound, the “MMAD of the nicotine aerosol” value is 2.00 in data set [2] (2 μm thick film) and 1.79 in data set [2] (6 μm thick film). Besides, the “purity of the nicotine aerosol” value in data set [2] (2 μm thick film) and in data set [2] (6 μm thick film) was “greater than 97%” throughout. Besides, the “average yield of nicotine in the aerosol” value in data set [3] (2 μm thick thin film, temperature range 300° C. to 400° C.) is on record as “about 60±7%”; in data set [3] (6 μm thick thin film, maximum temperature 300° C.), “about 51±2%”; in data set [3] (6 μm thick thin film, maximum temperature 400° C.), “about 73±1%”.

Take `Cc1nnc2n1-c1ccc(Cl)cc1C(c1ccccc1)=NC2` [alprazolam]: in data set [4], the “purity of the resultant aerosol” value was determined as 96.8% and the “recovered yield of aerosol” value is given as 100%.

Turning to `CC(C)C(=O)OCC(=O)[C@@]12O[C@H](C3CCCCC3)O[C@@H]1C[C@H]1[C@@H]3CCC4=CC(=O)C=C[C@]4(C)[C@H]3[C@@H](O)C[C@@]12C` [ciclesonide], in data set [4] (percussively ignited heat package, greater than 800° C., air flow 20 L/min, film 1.58 μm alprazolam, 6.33 μm pramipexole, 2.53 μm ciclesonide), the “purity of the resultant aerosol” value was 85.6%.

For the compound `CN1CCCC1c1cccnc1` (stereo not shown) [nicotine], the “time to attain nicotine blood level peak” value in data set [5] (cigarette smoking) is no more than 10 min. Besides, the “nicotine blood level peak” value in data set [5] (produced by cigarettes) is 30 to 40 ng/mL. In addition, in data set [5] (setting [7]), the “maximum nicotine blood concentration” value is on record as “approximately 12 ng/mL” and the “time of use to attain maximum nicotine blood concentration” value was “approximately 30 minutes”. For the same compound, the vapor pressure in data set [6] is 0.0425 mmHg.
